Reference: patent US20240262727A1, “METHOD FOR IMPROVING BIOLOGICAL NITROGEN REMOVAL EFFECT OF LOW-TEMPERATURE SEWAGE” (Sichuan University, priority 2023, published 2024)

How the values were obtained:
activated sludge [1] = experiment: Activated sludge SBR reactor, biological nitrogen removal with added AHLs signal molecule
Method: A system to be treated was cooled to 10° C., and an activated sludge SBR reactor was adopted with an effective volume of 1 L and an MLSS of 4,000 mg/L.
Incoming influent: COD: 250 mg/L, ammonia-nitrogen concentration (NH4^+—N): 30 mg/L, TP: 1.5 mg/L, pH=7-8.
12 h was an operation cycle, including 2.5 h of anoxic phase, 8 h of aerobic phase, and 1.5 h of standing. The anoxic phase had dissolved oxygen (DO) maintained below 0.5 mg/L, and the aerobic phase had DO>2.5 mg/L.
An N-butanoyl-homoserine lactone stock solution with a concentration of 10 mg/L, which was added every 2 operation cycles following the influent.
This example differed from Example 1 in that the treatment system was cooled to 7° C., and after the operation was stable, the water temperature was further lowered to 4° C.

[2] = tested on: microbial community of the activated sludge; experiment: High-throughput sequencing / metagenomics of SBR activated sludge (microbial community and functional genes); settings: for relative content of Nakamurella (nitrifying bacteria): 17.46% without
Method: After the treatment effect was stable, high-throughput sequencing was conducted on the activated sludge to analyze a composition of the microbial community. […] The increased abundance of functional bacteria and functional genes in the activated sludge SBR reactor improved the nitrogen removal effect of this reactor.

[3] = tested on: activated sludge-biofilm composite system; experiment: Activated sludge-biofilm composite MBBR reactor at 6° C., pollutant removal efficiency
Method: (2) The hydraulic retention time was 20 h, and an effluent from the reactor was collected to detect the pollutant removal efficiency. After a short period of adaptation, the COD concentration in the reactor effluent dropped below 50 mg/L, and the removal efficiency was always maintained at 85%. After adding the C4-HSL, the nitrogen removal effect gradually became more prominent. On the 16th day, the effluent ammonia-nitrogen concentration dropped below 8 mg/L (a maximum allowable emission concentration of ammonia-nitrogen from most urban sewage treatment plants at a water temperature of below 12° C.) to 6.77 mg/L, and the removal efficiency was 71.86%. On the 51st day, the ammonia-nitrogen concentration in the effluent dropped to almost 0, and the removal efficiency was greater than 99%.
There were three stages: increasing COD from 160 mg/L to 500 mg/L (260, 400, 500 mg/L); increasing ammonia-nitrogen concentration from 25 mg/L to 75 mg/L (40, 65, 75 mg/L); increasing TP from 2 mg/L to 8.5 mg/L (4, 6, 8.5 mg/L).
(§1) The C4-HSL with a concentration of 100 μg/L was added to the influent. The rest steps were the same as those in Example 5.

[4] = tested on: activated sludge and biofilm phases; experiment: EPS and ATP of the activated sludge and biofilm phases of the MBBR
Method: The EPS concentration in the sludge phase was 46.12±4.8 mg/g·VSS, and the intracellular ATP was 1273.11±5.4 ngATP/mL; the EPS concentration in the biofilm phase was 53.34±3.7 mg/g. VSS, and the microbial activity concentration of a single filler was 20.67±0.22 ngATP/piece.

biofilm on the filler = experiment: Single biofilm MBBR at low temperature (sludge discharged on 18th day), pollutant removal and community structure
Method: as §1
The hydraulic retention time was 18 h, the rest steps were the same as those Example 1, and the COD removal efficiency was 85%; after the reactor was drained of sludge, the nitrification effect dropped sharply.

[5] = tested on: biofilm / quorum quenching bacteria; experiment: Biofilm MBBR reactor at 22° C., microbial community structure; settings: 100 μg/L
Method: The sludge was discharged on the 12th day after the biofilm was successfully formed on the filler. The C4-HSL with a concentration of 100 μg/L was added to the influent. The rest steps were the same as those in Example 5.
The high concentration of C4-HSL allowed the quorum quenching bacteria to grow at a suitable temperature (22±1° C.), stimulating quorum quenching and inhibiting the attachment and growth of microorganisms to the filler.

activated sludge [6] = experiment: Activated sludge SBR reactor, biological nitrogen removal with added AHLs signal molecule; settings: for MLSS lower than that of the control group (without C4-HSL added): 4° C.; for MLSS of the reactor lower than that of the control group (without C4-HSL): after stable operation
[7] = tested on: activated sludge-biofilm composite system; experiment: Activated sludge-biofilm composite MBBR reactor at 6° C., pollutant removal efficiency; settings: 100 μg/L, HRT 18 h
[8] = 40 μg/L, 6° C., after treatment effect stable
[9] = 100 μg/L, 6° C., after treatment effect stable
[10] = 100 μg/L, after raising influent in three stages
[11] = 100 μg/L, after reactor drained of sludge
[12] = room temperature, 0, 10, 100 μg/L, after 74 cycles

CCCC(=O)N[C@H]1CCOC1=O [C4-HSL, N-butanoyl-L-homoserine lactone]
average NH4+—N removal efficiency (activated sludge [1]; 10 μg/L, 4° C. (Example 3)): 99.3%
MLSS lower than that of the control group (without C4-HSL added) (activated sludge [1]; 10 μg/L, 7° C.): 22%
average NH4+—N removal efficiency (activated sludge [1]; 10 μg/L, 7° C., after stabilization (Example 3)): 96.9%
MLSS lower than that of the control group (without C4-HSL added) (activated sludge [1]; 100 μg/L, 7° C.): 19%
average NH4+—N removal efficiency (activated sludge [1]; 100 μg/L, 7° C., after stabilization (Example 4)): 96.3%
abundance of CS gene (TCA cycle) ([2]; 10 μg/L, 10° C.): 0.017%
abundance of complete nitrifying bacterium Nitrospira ([2]; 10 μg/L, 10° C.): 0.100%
abundance of decomposition genes related to QS ([2]; 10 μg/L, 10° C.): 1.92%
abundance of denitrifying bacterium Dechloromonas ([2]; 10 μg/L, 10° C.): 0.246%
abundance of denitrifying bacterium Denitratisoma ([2]; 10 μg/L, 10° C.): 0.189%
abundance of fum gene (TCA cycle) ([2]; 10 μg/L, 10° C.): 0.018%
abundance of regulatory genes related to QS ([2]; 10 μg/L, 10° C.): 2.40%
abundance of sdh gene (TCA cycle) ([2]; 10 μg/L, 10° C.): 0.030%
abundance of transport genes related to QS ([2]; 10 μg/L, 10° C.): 7.75%
abundance of ammonia-oxidizing bacterium MND1 ([2]; 10 μg/L, 10° C. (Example 1)): 0.007%
share of complete nitrification process in nitrogen metabolism ([2]; 10 μg/L, 10° C., metagenomic): 12.53%
abundance of CS gene (TCA cycle) ([2]; 100 μg/L, 10° C.): 0.021%
abundance of Nitrospira ([2]; 100 μg/L, 10° C.): 0.222%
abundance of ammonia-oxidizing bacterium MND1 ([2]; 100 μg/L, 10° C.): 0.005%
abundance of decomposition genes related to QS ([2]; 100 μg/L, 10° C.): 2.50%
abundance of fum gene (TCA cycle) ([2]; 100 μg/L, 10° C.): 0.021%
abundance of heterotrophic nitrifying-aerobic denitrifying bacterium (Microbacterium) ([2]; 100 μg/L, 10° C.): 0.463%
abundance of mdh gene (TCA cycle) ([2]; 100 μg/L, 10° C.): 0.011%
abundance of nitrification gene nxr ([2]; 100 μg/L, 10° C.): 0.027%
abundance of nitrogen removal gene nirK ([2]; 100 μg/L, 10° C.): 0.015%
abundance of regulatory genes related to QS ([2]; 100 μg/L, 10° C.): 2.98%
abundance of sdh gene (TCA cycle) ([2]; 100 μg/L, 10° C.): 0.040%
abundance of transport genes related to QS ([2]; 100 μg/L, 10° C.): 9.22%
share of complete nitrification process in nitrogen metabolism ([2]; 100 μg/L, 10° C.): 13.82%
total abundance of 11 species of denitrifying bacteria ([2]; 100 μg/L, 10° C.): 16.53%
abundance of ammonia-oxidizing bacterium Ellin6067 ([2]; 100 μg/L, 10° C. (Example 2)): 0.393%
relative abundance of Arthrobacter, Nakamurella, Micrococcaceae and Nitrosomonas ([2]; 4° C., after system stable): promoted the increase
relative abundance of TM7a, Nakamurella, Tessaracoccus and Ferruginibacter ([2]; 7° C., after system stabilized): increased
effect on Actinobacteriota and Gemmatimonadota ([2]; room temperature): inhibition at low concentrations and promotion at high concentrations
relative content of Nakamurella (nitrifying bacteria) ([2]; room temperature, high-concentration C4-HSL): 20.79%
relative content of Nakamurella (nitrifying bacteria) ([2]; room temperature, low-concentration C4-HSL): 16.66%
growth and reproduction of Patescibacteria ([2]; room temperature, effect increased with concentration): promote
growth of Proteobacteria and Bacteroidota (phylum level) ([2]; room temperature, stronger at higher concentration): inhibited
ammonia-nitrogen removal efficiency ([3]; 40 μg/L, 6° C., 16th day): 71.86%
effluent ammonia-nitrogen concentration ([3]; 40 μg/L, 6° C., 16th day, influent 25 mg/L): 6.77 mg/L
ammonia-nitrogen concentration in the effluent ([3]; 40 μg/L, 6° C., 51st day): ~0
ammonia-nitrogen removal efficiency ([3]; 40 μg/L, 6° C., 51st day): greater than 99%
COD removal efficiency ([3]; 40 μg/L, 6° C., HRT 20 h): 85%
COD concentration in the reactor effluent ([3]; 40 μg/L, 6° C., HRT 20 h, influent COD 160 mg/L (Example 5)): below 50 mg/L
effluent COD concentration ([3]; 40 μg/L, 6° C., third stage influent COD 500, ammonia-nitrogen 75, TP 8.5 mg/L, 234th day): below 50 mg/L
TN removal efficiency ([3]; 40 μg/L, third stage influent): not less than 80%
effluent total nitrogen (TN) concentration ([3]; 40 μg/L, third stage influent): 12 mg/L
COD removal efficiency ([3]; 40 μg/L, third stage influent, 234th day): 95%
effluent ammonia-nitrogen removal efficiency ([3]; 100 μg/L, after raising influent in three stages (COD 500, ammonia-nitrogen 75, TP 8.5 mg/L)): not less than 99%
EPS concentration in the biofilm phase [4, 8]: 53.34±3.7 mg/g. VSS
EPS concentration in the sludge phase [4, 8]: 46.12±4.8 mg/g·VSS
intracellular ATP (sludge phase) [4, 8]: 1273.11±5.4 ngATP/mL
microbial activity concentration of a single filler [4, 8]: 20.67±0.22 ngATP/piece
EPS concentration in the activated sludge phase ([4]; 40 μg/L, third stage influent): 127.07±4.5 mg/g·VSS
EPS concentration in the biofilm phase ([4]; 40 μg/L, third stage influent): 113.70±2.59 mg/g. VSS
intracellular ATP (sludge phase) ([4]; 40 μg/L, third stage influent): 1709.78±4.1 ngATP/mL
microbial activity concentration of a single filler ([4]; 40 μg/L, third stage influent): 113.99±0.67 ngATP/mL
EPS concentration in activated sludge phase [4, 9]: 80.62±3.1 mg/g·VSS
EPS concentration in biofilm phase [4, 9]: 96.74±2.8 mg/g·VSS
intracellular ATP (sludge phase) [4, 9]: 2441.01±7.2 ngATP/mL
microbial activity concentration of a single filler [4, 9]: 26.56±0.42 ngATP/piece
EPS concentration in activated sludge phase [4, 10]: 380.38±5.7 mg/g·VSS
EPS concentration in biofilm phase [4, 10]: 235.18±3.5 mg/g·VSS
intracellular ATP (sludge phase) [4, 10]: 5868.42±8.9 ngATP/mL
microbial activity concentration of a single filler [4, 10]: 113.99±0.67 ngATP/mL
COD removal efficiency (biofilm on the filler; 100 μg/L, HRT 18 h, sludge discharged on 18th day (Comparative Example 7)): 85%
ammonia-nitrogen removal efficiency (biofilm on the filler; [11]): 40%
effluent ammonia-nitrogen concentration (biofilm on the filler; [11]): 12 mg/L
growth and enrichment of Bacteroidetes and Actinobacteria on the filler (biofilm on the filler; low temperature conditions): beneficial to promote the growth and enrichment
nitrification effect of a single biofilm system (biofilm on the filler; low temperature, single biofilm system): could not quickly improve
colonization and growth of biofilm ([5]; 22° C.): inhibited
growth of quorum quenching bacteria ([5]; 22° C. (Comparative Example 8)): promoted
COD removal efficiency (activated sludge [6]; 10 μg/L added every 2 cycles, 10° C. (Example 1)): 90%
MLSS lower than that of the control group (without C4-HSL added) (activated sludge [6]; 10 μg/L): 40%
TN average effluent concentration (activated sludge [6]; 10 μg/L, 10° C. (Example 1)): 11.40 mg/L
average NH4+—N removal efficiency (activated sludge [6]; 10 μg/L, 10° C. (Example 1)): 99.69%
cycles after which TN removal efficiency reached stability (activated sludge [6]; 10 μg/L, 10° C. (Example 1)): 27 cycles
TN average removal efficiency (activated sludge [6]; 10 μg/L, 10° C., after stability (Example 1)): 64.97%
MLSS of the reactor lower than that of the control group (without C4-HSL) (activated sludge [6]; 10 μg/L, 10° C.): 2%
MLSS lower than that of the control group (without C4-HSL added) (activated sludge [6]; 100 μg/L): 38%
average NH4+—N removal efficiency (activated sludge [6]; 100 μg/L, 4° C. (Example 4)): 98.8%
TN average effluent concentration (activated sludge [6]; 100 μg/L, 10° C.): 12.86 mg/L
cycles after which TN removal efficiency reached stability (activated sludge [6]; 100 μg/L, 10° C.): 27 cycles
COD removal efficiency (activated sludge [6]; 100 μg/L, 10° C. (Example 2)): 90%
average NH4+—N removal efficiency (activated sludge [6]; 100 μg/L, 10° C. (Example 2)): 99.85%
TN average removal efficiency (activated sludge [6]; 100 μg/L, 10° C., after stability): 60.46%
MLSS of the reactor lower than that of the control group (without C4-HSL) (activated sludge [6]; 100 μg/L, 10° C.): 12%
TN removal efficiency and NH4+—N removal efficiency compared with not adding C4-HSL (activated sludge [6]; low temperatures, Example 1 vs Comparative Example 1, FIG. 1 and 2): significantly improved
effect of adding C4-HSL on the nitrogen removal effect (activated sludge [6]; room temperature): little effect
ammonia-nitrogen removal efficiency (activated sludge [6]; [12]): not less than 99%
effluent TN (activated sludge [6]; [12]): not more than 15 mg/L
effluent ammonia-nitrogen concentration (activated sludge [6]; [12]): around 0.1 mg/L
removal efficiency of COD (activated sludge [6]; [12]): not less than 90%
ammonia-nitrogen removal efficiency ([7]; 5th day): 77.43%
effluent ammonia-nitrogen concentration ([7]; 5th day (Example 6)): 5.85 mg/L
ammonia-nitrogen removal efficiency ([7]; 12th day): greater than 99%

CCCCCC(=O)N[C@H]1CCOC1=O [C6-HSL, N-hexanoyl-L-homoserine lactone]
ammonia-nitrogen removal efficiency (activated sludge [6]; 10 μg/L after addition, remaining steps as Example 1 (10° C.)): 82.34%
ammonia-nitrogen removal efficiency (activated sludge [6]; 100 μg/L after addition, remaining steps as Example 1 (10° C.)): 84.29%
